1 compound from PMC6801739, “Antitumor Activity of a Novel Tyrosine Kinase Inhibitor AIU2001 Due to Abrogation of the DNA Damage Repair in Non-Small Cell Lung Cancer Cells” (International Journal of Molecular Sciences, 2019) can be followed below.

Common to all, as to format: cell-based, human
In one assay the test system is H460 cells. Nature of the assay: MTT cell viability assay. The note with it: five days. Here is the method:
(§1) Cell viability was assessed using the MTT colorimetric assay. Cells (1 × 10^3 cells/well) were seeded into 96-well plates and treated with the various concentrations of each compound or combination of two compounds. After five days of treatment, 10 μL MTT (0.5 mg/mL) was added, and further incubated for 3 h. After removal of the supernatant, the resultant pellet was dissolved in DMSO. The absorbance of the resultant formazan was measured at 540 nm using a plate reader (Multiskan EX; ThermoLabsystems, Waltham, MA, USA).
In general terms: Formazan colour is commonly taken as a measure of viable cells.

Another assay relates to BEAS2B cells. Nature of the assay: MTT cell viability assay. Particulars: BEAS2B normal bronchial epithelial cells, five days. Here is the method: as §1
In another assay the test system is CCD18-Lu cells. Description: MTT cell viability assay. Particulars: CCD18-Lu lung fibroblast cells, five days. Here is the method: as §1
The test system of assay [1] is H1299 cells. Description: MTT cell viability assay, single drugs and combinations, CI scores. Here is the method:
as §1
(§2) CI scores were calculated using the CompuSyn software by Chou (CompuSyn Inc., Paramus, NJ) based on cell viability after treatment with single- and paired-drug concentrations. The CI equation for two drugs was used: CI=(D)A/(Dx)A+(D)B/(Dx)B where (Dx)A is the concentration of drug A alone that inhibits x%, (Dx)B is the concentration of drug B alone that inhibits x%, (D)A or (D)B is the portion of drug A or drug B in the combination (D)A + (D)B that inhibits x%.

Assay [2] deals with A549 cells. The assay is described as above. As for the experimental part:
as §1, §2

The test system of assay [3] is H1299 cells. Nature of the assay: qPCR of DNA damage repair genes and STAT5 mRNA. Particulars: 24 h. The source says:
(§3) RNA was extracted using TRIzol® RNA isolation reagent (ThermoFisher Scientific). RNA was reverse-transcribed into cDNA using the M-MLV reverse transcriptase (Enzynomics, Daejeon, Korea) and RNase inhibitor (Promega, Madison, WI, USA). The sequence of the primers targeting human BRCA1, BRCA2, RAD51, BARD1, XRCC6, and XRCC5 are as follows: BRCA1 sense 5′-[…]-3′, BRCA1 antisense 5′-[…]-3′, BRCA2 sense 5′-[…]-3′, BRCA2 antisense 5′-[…]-3′, RAD51 sense 5′-[…]-3′, RAD51 antisense 5′-[…]-3′, BARD1 sense 5′-[…]-3′, BARD1 antisense 5′-[…]-3′, XRCC6 sense 5′-[…]-3′, XRCC6 antisense 5′-[…]-3′, XRCC5 sense 5′-[…]-3′,and XRCC5 antisense 5′-[…]-3′. β-actin was used as a housekeeping gene for normalization. The cDNA was quantified using real-time PCR with SYBR Green/fluorescein qPCR master mix (ThermoScientific, Carlsbad, CA, USA) on a Lightcycler 96 system (Roche Diagnostics, Mannheim, Germany) according to the manufacturer’s protocol.

The subject of assay [4] is A549 cells. Description: qPCR of DNA damage repair genes and STAT5 mRNA. Particulars: 24 h.
Source text: as §3
(In general: Quantitative PCR measures a nucleic acid by following its amplification.)

By viability is commonly meant a read-out of living cells in per cent, often relative to untreated cells. As for `CC(C)(C)c1cc(NC(=O)Nc2ccc(-c3cn4c(n3)sc3cc(OCCN5CCOCC5)ccc34)cc2)no1` [quizartinib, reference compound], the “Growth inhibition” value was “slightly inhibited the proliferation” in the assay on H460 cells; “slightly inhibited the proliferation” in the assay on BEAS2B cells; “slightly inhibited the proliferation” in the assay with CCD18-Lu cells; “slightly inhibited the proliferation” in the assay with H1299 cells [1] (MTT, five days); “slightly inhibited the proliferation” in the assay on A549 cells [2] (MTT, five days). In addition, the viability at 0.16 µM in the assay on H1299 cells [1] (Homo sapiens, NCI-H1299, 120 h, Olaparib 0, Quizartinib 0.16 μM, 5 days, panel B, read-out: Relative viability) is 104%; with A549 cells [2] (Homo sapiens, 120 h, Olaparib 0, Quizartinib 0.16 μM, 5 days, panel B, read-out: Relative viability) it was 93.1%. Moreover, the viability at 0.32 µM was 105% with H1299 cells [1] (Homo sapiens, NCI-H1299, 120 h, Olaparib 0, Quizartinib 0.32 μM, 5 days, panel B, read-out: Relative viability) and 91.8% in the assay with A549 cells [2] (Homo sapiens, 120 h, Olaparib 0, Quizartinib 0.32 μM, 5 days, panel B, read-out: Relative viability). Also, the viability at 0.63 µM was found to be 106% in the assay with H1299 cells [1] (Homo sapiens, NCI-H1299, 120 h, Olaparib 0, Quizartinib 0.63 μM, 5 days, panel B, read-out: Relative viability) and 93.9% in the assay on A549 cells [2] (Homo sapiens, 120 h, Olaparib 0, Quizartinib 0.63 μM, 5 days, panel B, read-out: Relative viability). Besides, the viability at 1.25 µM is 92.7% in the assay with H1299 cells [1] (Homo sapiens, NCI-H1299, 120 h, Olaparib 0, Quizartinib 1.25 μM, 5 days, panel B, read-out: Relative viability) and 92.6% in the assay with A549 cells [2] (Homo sapiens, 120 h, Olaparib 0, Quizartinib 1.25 μM, 5 days, panel B, read-out: Relative viability). For the same compound, the viability at 2.5 µM in the assay on H1299 cells [1] (Homo sapiens, NCI-H1299, 120 h, Olaparib 0, Quizartinib 2.50 μM, 5 days, panel B, read-out: Relative viability) was 87.3%; in the assay with A549 cells [2] (Homo sapiens, 120 h, Olaparib 0, Quizartinib 2.50 μM, 5 days, panel B, read-out: Relative viability), 87.5%. The viability at 5 µM with H1299 cells [1] (Homo sapiens, NCI-H1299, 120 h, Olaparib 0, Quizartinib 5.00 μM, 5 days, panel B, read-out: Relative viability) is 65.8%; in the assay on A549 cells [2] (Homo sapiens, 120 h, Olaparib 0, Quizartinib 5.00 μM, 5 days, panel B, read-out: Relative viability), 77.8%. Also, the viability at 10 µM with H1299 cells [1] (Homo sapiens, NCI-H1299, 120 h, Olaparib 0, Quizartinib 10.00 μM, 5 days, panel B, read-out: Relative viability) worked out at 32.1%; in the assay with A549 cells [2] (Homo sapiens, 120 h, Olaparib 0, Quizartinib 10.00 μM, 5 days, panel B, read-out: Relative viability), 64.6%. In addition, the “Expression level of STAT5 mRNA” value with H1299 cells [3] and in the assay with A549 cells [4] was “decreased the expression” each time. Further, the “mRNA levels of HR (BRCA1, BRCA2, BARD1, RAD51) and NHEJ (XRCC5, XRCC6) genes” value in the assay with H1299 cells [3] and in the assay with A549 cells [4] was “decreased the expression” in each case.
